The assay has as its system DLD-1 BRCA2(−/−) Cell. Put plainly: Cell viability assay (Resazurin) in DLD1-BRCA2 cells. It counts as cell-based. As to conditions: Homo sapiens, DLD-1, 336 h, 14 days, 1,500 cells/well, final DMSO 1%. Here is the method: DLD1-BRCA2 KG (Horizon Discovery, Cat #HD 105-007) cells and DLD1-parental cells were maintained in culture media (RPMI-1640 including 2 mM L-glutamin and 25 mM sodium bicarbonate, supplemented with 10% FBS), at 37° C. in a humidified atmosphere with 5% CO2. Cells were seeded at the final concentration of 1,500 cells/well (DLD1-BRCA2 KG) and 600 cells/well (DLD1-parental) in a 96-well plate. Four hours later, test compounds were added (the final concentration of DMSO was 1%) to the cells and media were replaced every 3-4 days for 14 days. To measure viability, cells were incubated in culture media supplemented with 0.1 mg/ml of Resazurin (Merck, Cat #R7017) for 4 hours. The fluorescence was measured at Ex/Em=560 nm/590 nm using EnSight multimode plate reader (Perkin Elmer). Data analysis and IC50 calculation was done using GraphPad Prism (Version 10.0.2).
A general note: Alamar Blue is a resazurin reagent that responds to reducing activity.
As usually defined, the IC50 is the concentration at which inhibition is half-maximal. Lower therefore signals higher potency. `Cc1ccc(F)c(N(CC#Cc2cnc(NC(C)C)cn2)C(=O)[C@@H]2CCS(=O)(=O)N2c2cc(C(F)(F)F)cc(C)n2)c1` [Example 37, (S)-N-(2-fluoro-5-methylphenyl)-N-(3-(5-(isopropylamino)pyrazin-2-yl)prop-2-yn-1-yl)-2-(6-methyl-4-(trifluoromethyl)pyridin-2-yl)isothiazolidine-3-carboxamide 1,1-dioxide] showed an IC50 of 1100 to 5000 nM.

Regarding `Cc1cc(C(F)(F)F)cc(N2[C@H](C(=O)N(CC#Cc3cnc(N4CC5(COC5)C4)cn3)c3ccc(F)c(C)c3)CCS2(=O)=O)n1` [Example 38, (S)-N-(3-(5-(2-oxa-6-azaspiro[3.3]heptan-6-yl)pyrazin-2-yl)prop-2-yn-1-yl)-N-(4-fluoro-3-methylphenyl)-2-(6-methyl-4-(trifluoromethyl)pyridin-2-yl)isothiazolidine-3-carboxamide 1,1-dioxide], the IC50 lay in the range of 1100 to 5000 nM.

`Cc1cc(C(F)(F)F)cc(N2[C@H](C(=O)N(CC#Cc3cnc(N4CCOCC4)cn3)c3ccc(F)c(C)c3)CCS2(=O)=O)n1` [Example 39, (S)-N-(4-fluoro-3-methylphenyl)-2-(6-methyl-4-(trifluoromethyl)pyridin-2-yl)-N-(3-(5-orpholinopyrazin-2-yl)prop-2-yn-1-yl)isothiazolidine-3-carboxamide 1,1-dioxide]: the IC50 is below 1000 nM.

Molecule `Cc1ccc(F)c(N(CC#Cc2cnc(N3CCOCC3)cn2)C(=O)[C@@H]2CCS(=O)(=O)N2c2cc(C(F)(F)F)cc(C)n2)c1` [Example 40, (S)-N-(2-fluoro-5-methylphenyl)-2-(6-methyl-4-(trifluoromethyl)pyridin-2-yl)-N-(3-(5-morpholinopyrazin-2-yl)prop-2-yn-1-yl)isothiazolidine-3-carboxamide 1,1-dioxide] came in with an IC50 of 1100 to 5000 nM.

`Cc1ccc(F)c(N(CC#Cc2cnc(N3CCOCC3)cn2)C(=O)[C@H]2CCS(=O)(=O)N2c2cc(C(F)(F)F)cc(C)n2)c1` [Example 41, (R)-N-(2-fluoro-5-methylphenyl)-2-(6-methyl-4-(trifluoromethyl)pyridin-2-yl)-N-(3-(5-morpholinopyrazin-2-yl)prop-2-yn-1-yl) isothiazolidine-3-carboxamide 1,1-dioxide] returned an IC50 above 5100 nM.

Molecule `Cc1cc(C(F)(F)F)cc(N2[C@H](C(=O)N(CC#Cc3cncc(N4CCOCC4)n3)c3ccc(F)c(C)c3)CCS2(=O)=O)n1` [Example 42, (S)-N-(4-fluoro-3-methylphenyl)-2-(6-methyl-4-(trifluoromethyl)pyridin-2-yl)-N-(3-(6-morpholinopyrazin-2-yl)prop-2-yn-1-yl)isothiazolidine-3-carboxamide 1,1-dioxide] had an IC50 below 1000 nM.

Consider `Cc1cc(C(F)(F)F)cc(N2[C@H](C(=O)N(CC#Cc3ncc(N4CCOCC4)nc3N)c3ccc(F)c(C)c3)CCS2(=O)=O)n1` [Example 43], for which the IC50 lay within 1100 to 5000 nM.

As to `Cc1cc(C(F)(F)F)cc(N2[C@H](C(=O)N(CC#Cc3cnc(N4CCOCC4)c(N)n3)c3ccc(F)c(C)c3)CCS2(=O)=O)n1` [Example 44, (S)-N-(3-(6-amino-5-morpholinopyrazin-2-yl)prop-2-yn-1-yl)-N-(4-fluoro-3-methylphenyl)-2-(6-methyl-4-(trifluoromethyl)pyridin-2-yl)isothiazolidine-3-carboxamide 1,1-dioxide], the IC50 is 1100 to 5000 nM.

For `Cc1cc(C(F)(F)F)cc(N2[C@H](C(=O)N(CC#Cc3cnc(N4CCOCC4)c(C)n3)c3ccc(F)c(C)c3)CCS2(=O)=O)n1` [Example 45, (S)-N-(4-fluoro-3-methylphenyl)-2-(6-methyl-4-(trifluoromethyl)pyridin-2-yl)-N-(3-(6-methyl-5-morpholinopyrazin-2-yl)prop-2-yn-1-yl)isothiazolidine-3-carboxamide 1,1-dioxide], the concentration for half-maximal inhibition (IC50) is below 1000 nM.

The molecule `Cc1cc(C(F)(F)F)cc(N2[C@H](C(=O)N(CC#Cc3cnc(N4CCOCC4)c(C(F)(F)F)n3)c3ccc(F)c(C)c3)CCS2(=O)=O)n1` [Example 46, (S)-N-(4-fluoro-3-methylphenyl)-2-(6-methyl-4-(trifluoromethyl)pyridin-2-yl)-N-(3-(5-morpholino-6-(trifluoromethyl)pyrazin-2-yl)prop-2-yn-1-yl)isothiazolidine-3-carboxamide 1,1-dioxide] yielded an IC50 of 1100 to 5000 nM.

`Cc1cc(C(F)(F)F)cc(N2[C@H](C(=O)N(CC#Cc3cnc(N4C[C@@H](C)O[C@@H](C)C4)cn3)c3ccc(F)c(C)c3)CCS2(=O)=O)n1` [Example 47, (S)-N-(3-(5-((2S,6R)-2,6-dimethylmorpholino)pyrazin-2-yl)prop-2-yn-1-yl)-N-(4-fluoro-3-methylphenyl)-2-(6-methyl-4-(trifluoromethyl)pyridin-2-yl)isothiazolidine-3-carboxamide 1,1-dioxide] returned an IC50 of 1100 to 5000 nM.

`Cc1cc(C(F)(F)F)cc(N2[C@H](C(=O)N(CC#Cc3cnc(N4CC5CCC(C4)O5)cn3)c3ccc(F)c(C)c3)CCS2(=O)=O)n1` [Example 48, (3S)-N-(3-(5-(8-oxa-3-azabicyclo[3.2.1]octan-3-yl)pyrazin-2-yl)prop-2-yn-1-yl)-N-(4-fluoro-3-methylphenyl)-2-(6-methyl-4-(trifluoromethyl)pyridin-2-yl)isothiazolidine-3-carboxamide 1,1-dioxide] gave a half-maximal inhibitory concentration (IC50) below 1000 nM.

The molecule `Cc1cc(C(F)(F)F)cc(N2[C@H](C(=O)N(CC#Cc3cnc(N4C5CCC4COC5)cn3)c3ccc(F)c(C)c3)CCS2(=O)=O)n1` [Example 49, (3S)-N-(3-(5-(3-oxa-8-azabicyclo[3.2.1]octan-8-yl)pyrazin-2-yl)prop-2-yn-1-yl)-N-(4-fluoro-3-methylphenyl)-2-(6-methyl-4-(trifluoromethyl)pyridin-2-yl)isothiazolidine-3-carboxamide 1,1-dioxide] showed an IC50 below 1000 nM.

For the molecule `CCN1CCN(c2cnc(C#CCN(C(=O)[C@@H]3CCS(=O)(=O)N3c3cc(C(F)(F)F)cc(C)n3)c3ccc(F)c(C)c3)cn2)CC1` [Example 50, (S)-N-(3-(5-(4-ethylpiperazin-1-yl)pyrazin-2-yl)prop-2-yn-1-yl)-N-(4-fluoro-3-methylphenyl)-2-(6-methyl-4-(trifluoromethyl)pyridin-2-yl)isothiazolidine-3-carboxamide 1,1-dioxide], the IC50 was below 1000 nM.

In turn, `CCN1CCN(c2cnc(C#CCN(C(=O)[C@@H]3CCS(=O)(=O)N3c3cc(C(F)(F)F)cc(C)n3)c3cc(C)ccc3F)cn2)CC1` [Example 51, (S)-N-(3-(5-(4-ethylpiperazin-1-yl)pyrazin-2-yl)prop-2-yn-1-yl)-N-(2-fluoro-5-methylphenyl)-2-(6-methyl-4-(trifluoromethyl)pyridin-2-yl)isothiazolidine-3-carboxamide 1,1-dioxide] showed an IC50 below 1000 nM.

The molecule `Cc1cc(C(F)(F)F)cc(N2[C@H](C(=O)N(CC#Cc3cnc(N4C[C@H](C)N[C@@H](C)C4)cn3)c3ccc(F)c(C)c3)CCS2(=O)=O)n1` [Example 52, (S)-N-(3-(5-((3S,5S)-3,5-dimethylpiperazin-1-yl)pyrazin-2-yl)prop-2-yn-1-yl)-N-(4-fluoro-3-methylphenyl)-2-(6-methyl-4-(trifluoromethyl)pyridin-2-yl)isothiazolidine-3-carboxamide 1,1-dioxide] had an IC50 below 1000 nM.

For the molecule `Cc1cc(C(F)(F)F)cc(N2[C@H](C(=O)N(CC#Cc3cnc(N4C[C@H](C)N(C(C)C)[C@@H](C)C4)cn3)c3ccc(F)c(C)c3)CCS2(=O)=O)n1` [Example 53, (S)-N-(4-fluoro-3-methylphenyl)-N-(3-(5-((3S,5S)-4-isopropyl-3,5-dimethylpiperazin-1-yl)pyrazin-2-yl)prop-2-yn-1-yl)-2-(6-methyl-4-(trifluoromethyl)pyridin-2-yl)isothiazolidine-3-carboxamide 1,1-dioxide], the IC50 was below 1000 nM.

For `Cc1cc(C(F)(F)F)cc(N2[C@@H](C(=O)N(CC#Cc3cnc(N4C[C@H](C)N(C(C)C)[C@@H](C)C4)cn3)c3ccc(F)c(C)c3)CCS2(=O)=O)n1` [Example 54, (R)-N-(4-fluoro-3-methylphenyl)-N-(3-(5-((3S,5S)-4-isopropyl-3,5-dimethylpiperazin-1-yl)pyrazin-2-yl)prop-2-yn-1-yl)-2-(6-methyl-4-(trifluoromethyl)pyridin-2-yl)isothiazolidine-3-carboxamide 1,1-dioxide], the IC50 was above 5100 nM.

`Cc1cc(C(F)(F)F)cc(N2[C@H](C(=O)N(CC#Cc3cnc(N4[C@H](C)CN(C(C)C)C[C@H]4C)cn3)c3ccc(F)c(C)c3)CCS2(=O)=O)n1` [Example 55, (S)-N-(4-fluoro-3-methylphenyl)-N-(3-(5-((2R,6R)-4-isopropyl-2,6-dimethylpiperazin-1-yl)pyrazin-2-yl)prop-2-yn-1-yl)-2-(6-methyl-4-(trifluoromethyl)pyridin-2-yl)isothiazolidine-3-carboxamide 1,1-dioxide] returned a half-inhibitory concentration (IC50) below 1000 nM.

Molecule `Cc1cc(C(F)(F)F)cc(N2[C@H](C(=O)N(CC#Cc3cnc(-c4c[nH]nn4)cn3)c3ccc(F)c(C)c3)CCS2(=O)=O)n1` [Example 56, (S)-N-(3-(5-(1H-1,2,3-triazol-4-yl)pyrazin-2-yl)prop-2-yn-1-yl)-N-(4-fluoro-3-methylphenyl)-2-(6-methyl-4-(trifluoromethyl)pyridin-2-yl)isothiazolidine-3-carboxamide 1,1-dioxide] registered an IC50 below 1000 nM.

`Cc1cc(C(F)(F)F)cc(N2[C@H](C(=O)N(CC#Cc3cnc(-n4ccnn4)cn3)c3ccc(F)c(C)c3)CCS2(=O)=O)n1` [Example 57, (S)-N-(3-(5-(1H-1,2,3-triazol-1-yl)pyrazin-2-yl)prop-2-yn-1-yl)-N-(4-fluoro-3-methylphenyl)-2-(6-methyl-4-(trifluoromethyl)pyridin-2-yl)isothiazolidine-3-carboxamide 1,1-dioxide] registered an IC50 below 1000 nM.

The values are drawn from US20260297083A1, “SUBSTITUTED ACETYLENE COMPOUND DERIVATIVES AND THEIR PHARMACEUTICAL USE” (AVELOS THERAPEUTICS INC., priority 2023, published 2026).
